molecular target: METTL3/14 (Homo sapiens (Human), UniProt Q86U44); experiment: METTL3/14 methyltransferase biochemical assay (RapidFire mass spectrometry, METTL3_14 RFMS); conditions: not given
Description: The enzymatic assay was established to determine IC50 values for inhibition of RNA methyltransferase activity. The enzyme used was full-length his-tagged METTL3 co-expressed with full length FLAG-tagged METTL14 in a baculovirus expression system. […] The reaction was incubated for further 60 minutes at room temperature, and then quenched by the addition of 40 μL 7.5% TCA with two internal product standards (D4-SAH and ^13C10-SAH). After termination, plates were sealed, centrifuged and stored at 4° C. until analysis. […] RNA methyltransferase activity was measured label free using the RapidFireTM mass spectrometry (RF/MS) platform. Stopped and stable assay plates were analyzed on the Agilent RF300 integrated autosampler/solid-phase extraction (SPE) system coupled to an ABSciex 4000 mass spectrometer for the generation of the product S-adenosyl homocysteine (SAH) and normalized to the ratio of signal of the two internal product standards, respectively. Solvent A was water containing 0.1% (v/v) TCA. Solvent B was acetonitrile/0.1% ammonium acetate (8:2, v/v).

Sequence of METTL3/14 (Q86U44 whole entry): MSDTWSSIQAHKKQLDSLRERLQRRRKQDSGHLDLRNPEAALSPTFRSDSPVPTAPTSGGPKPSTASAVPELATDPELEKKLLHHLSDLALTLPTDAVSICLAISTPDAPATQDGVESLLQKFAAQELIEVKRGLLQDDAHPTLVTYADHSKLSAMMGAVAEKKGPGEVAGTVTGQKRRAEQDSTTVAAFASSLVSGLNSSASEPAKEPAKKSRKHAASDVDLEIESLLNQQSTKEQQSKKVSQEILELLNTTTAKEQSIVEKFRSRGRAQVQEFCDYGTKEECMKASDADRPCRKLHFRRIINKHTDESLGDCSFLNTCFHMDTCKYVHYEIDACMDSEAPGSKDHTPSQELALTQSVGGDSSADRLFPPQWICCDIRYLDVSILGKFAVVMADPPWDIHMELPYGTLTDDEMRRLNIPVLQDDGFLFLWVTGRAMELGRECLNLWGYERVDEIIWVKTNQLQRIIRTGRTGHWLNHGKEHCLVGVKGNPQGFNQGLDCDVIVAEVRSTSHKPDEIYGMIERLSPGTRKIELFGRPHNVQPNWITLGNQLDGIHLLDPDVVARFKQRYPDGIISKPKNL
Sequence of METTL3/14 (Q9HCE5 whole entry partner): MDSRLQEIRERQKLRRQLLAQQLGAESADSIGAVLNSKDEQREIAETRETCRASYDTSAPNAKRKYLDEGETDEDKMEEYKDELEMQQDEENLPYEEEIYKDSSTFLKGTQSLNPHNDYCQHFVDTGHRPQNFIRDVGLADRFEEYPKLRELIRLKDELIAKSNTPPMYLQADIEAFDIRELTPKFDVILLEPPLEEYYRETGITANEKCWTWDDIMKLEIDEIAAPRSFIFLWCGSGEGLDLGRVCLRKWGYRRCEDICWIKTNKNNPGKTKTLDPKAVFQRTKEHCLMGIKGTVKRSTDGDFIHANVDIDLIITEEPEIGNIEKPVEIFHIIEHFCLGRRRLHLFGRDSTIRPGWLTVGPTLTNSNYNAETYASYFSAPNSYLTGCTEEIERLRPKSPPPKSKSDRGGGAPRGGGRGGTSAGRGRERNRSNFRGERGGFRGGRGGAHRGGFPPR

SMILES | IC50
Cc1nc(C(=O)NCc2cn3cc(CNCC4CCCCC4)ccc3n2)cc(=O)n1C [Example 2, N-[(6-{[(cyclohexylmethyl)amino]methyl}imidazo[1,2-a]pyridin-2-yl)methyl]-1,2-dimethyl-6-oxo-1,6-dihydropyrimidine-4-carboxamide] | 719 nM
O=C(NCc1cn2cc(CNCC3CCCCC3)ccc2n1)c1cnc2ccccc2n1 [Example 6, N-[(6-{[(cyclohexylmethyl)amino]methyl}imidazo[1,2-a]pyridin-2-yl)methyl]quinoxaline-2-carboxamide] | 151 nM
O=C(NCc1cn2cc(CNCC3CCCCC3)ccc2n1)c1ccnc2[nH]ncc12 [Example 7, N-[(6-{[(cyclohexylmethyl)amino]methyl}imidazo[1,2-a]pyridin-2-yl)methyl]-1H-pyrazolo[3,4-b]pyridine-4-carboxamide] | 1400 nM
O=C(NCc1cn2cc(CNCC3CCC3)ccc2n1)c1cccn2cncc12 [Example 10, N-[(6-{[(cyclobutylmethyl)amino]methyl}imidazo[1,2-a]pyridin-2-yl)methyl]imidazo[1,5-a]pyridine-8-carboxamide] | 36.5 nM
O=C(NCc1cn2cc(CNCC3CCC3)ccc2n1)c1cccc2cncn12 [Example 11, N-[(6-{[(cyclobutylmethyl)amino]methyl}imidazo[1,2-a]pyridin-2-yl)methyl]imidazo[1,5-a]pyridine-5-carboxamide] | 104 nM
O=C(NCc1cn2cc(CNCC3CCC3)ccc2n1)c1cnc2[nH]cnc2c1 [Example 13, N-[(6-{[(cyclobutylmethyl)amino]methyl}imidazo[1,2-a]pyridin-2-yl)methyl]-3H-imidazo[4,5-b]pyridine-6-carboxamide] | 1070 nM
O=C(NCc1cn2cc(CNCC3CCC3)ccc2n1)c1cnc2[nH]ccc2c1 [Example 14, N-[(6-{[(cyclobutylmethyl)amino]methyl}imidazo[1,2-a]pyridin-2-yl)methyl]-1H-pyrrolo[2,3-b]pyridine-5-carboxamide] | 14.5 nM
O=C(NCc1cn2cc(CNCC3CC(F)(F)C3)ccc2n1)c1cnc2[nH]ccc2c1 [Example 15, N-{[6-({[(3,3-difluorocyclobutyl)methyl]amino}methyl)imidazo[1,2-a]pyridin-2-yl]methyl}-1H-pyrrolo[2,3-b]pyridine-5-carboxamide] | 27.3 nM
Cn1ccc2cc(C(=O)NCc3cn4cc(CNCC5CCC5)ccc4n3)cnc21 [Example 16, N-[(6-{[(cyclobutylmethyl)amino]methyl}imidazo[1,2-a]pyridin-2-yl)methyl]-1-methyl-1H-pyrrolo[2,3-b]pyridine-5-carboxamide] | 1600 nM
O=C(NCc1cn2cc(CNCC3CCC3)ccc2n1)c1ccc2[nH]ccc2c1 [Example 17, N-[(6-{[(cyclobutylmethyl)amino]methyl}imidazo[1,2-a]pyridin-2-yl)methyl]-1H-indole-5-carboxamide] | 3820 nM
O=C(NCc1cn2cc(CNCC3CCC3)ccc2n1)c1cnc2[nH]ccc2n1 [Example 18, N-[(6-{[(cyclobutylmethyl)amino]methyl}imidazo[1,2-a]pyridin-2-yl)methyl]-5H-pyrrolo[2,3-b]pyrazine-2-carboxamide] | 14.1 nM
Clc1cc(-c2cn(Cc3cn4cc(CNCC5CCC5)ccc4n3)nn2)c2cncn2c1 [Example 24, ({2-[(4-{6-chloroimidazo[1,5-a]pyridin-8-yl}-1H-1,2,3-triazol-1-yl)methyl]imidazo[1,2-a]pyridin-6-yl}methyl)(cyclobutylmethyl)amine] | 6.1 nM
c1cc(-c2cn(Cc3cn4cc(CNCC5CCC5)ccc4n3)nn2)c2nncn2c1 [Example 27, (cyclobutylmethyl)({2-[(4-{[1,2,4]triazolo[4,3-a]pyridin-8-yl}-1H-1,2,3-triazol-1-yl)methyl]imidazo[1,2-a]pyridin-6-yl}methyl)amine] | 236 nM
c1ccc2c(-c3cn(Cc4cn5cc(CN(CC6CCC6)CC6CCC6)ccc5n4)nn3)cncc2c1 [Example 32, bis(cyclobutylmethyl)[(2-{[4-(isoquinolin-4-yl)-1H-1,2,3-triazol-1-yl]methyl}imidazo[1,2-a]pyridin-6-yl)methyl]amine] | 1260 nM
c1cc2cc(-c3cn(Cc4cn5cc(CNCC6CCC6)ccc5n4)cn3)cnc2[nH]1 [Example 34, (cyclobutylmethyl)({2-[(4-{1H-pyrrolo[2,3-b]pyridin-5-yl}-1H-imidazol-1-yl)methyl]imidazo[1,2-a]pyridin-6-yl}methyl)amine] | 9.34 nM
Cc1ncc2c(-c3cn(Cc4cn5cc(CNCC67CC(F)(C6)C7)ccc5n4)nn3)cccn12 [Example 36, ({3-fluorobicyclo[1.1.1]pentan-1-yl}methyl)({2-[(4-{3-methylimidazo[1,5-a]pyridin-8-yl}-1H-1,2,3-triazol-1-yl)methyl]imidazo[1,2-a]pyridin-6-yl}methyl)amine] | 105 nM
COc1cnc(C#N)c(-c2cn(Cc3cn4cc(CNCC56CC(C5)C6)ccc4n3)nn2)c1 [Example 37, 3-{1-[(6-{[({bicyclo[1.1.1]pentan-1-yl}methyl)amino]methyl}imidazo[1,2-a]pyridin-2-yl)methyl]-1H-1,2,3-triazol-4-yl}-5-methoxypyridine-2-carbonitrile] | 11.2 nM
COc1cnc(C#N)c(-c2cn(Cc3cn4cc(CNCC5CCC5)ccc4n3)nn2)c1 [Example 38, 3-{1-[(6-{[(cyclobutylmethyl)amino]methyl}imidazo[1,2-a]pyridin-2-yl)methyl]-1H-1,2,3-triazol-4-yl}-5-methoxypyridine-2-carbonitrile] | 57 nM
COc1cnc(C#N)c(-c2cn(Cc3cn4cc(CN5CCC6(CCC6)C5)ccc4n3)nn2)c1 [Example 40, 3-(1-{[6-({6-azaspiro[3.4]octan-6-yl}methyl)imidazo[1,2-a]pyridin-2-yl]methyl}-1H-1,2,3-triazol-4-yl)-5-methoxypyridine-2-carbonitrile] | 76 nM
N#Cc1ncc(F)cc1-c1cn(Cc2cn3cc(CN4CCC5(CCC5)C4)ccc3n2)nn1 [Example 42, 3-(1-{[6-({6-azaspiro[3.4]octan-6-yl}methyl)imidazo[1,2-a]pyridin-2-yl]methyl}-1H-1,2,3-triazol-4-yl)-5-fluoropyridine-2-carbonitrile] | 1180 nM
N#Cc1ncc(F)cc1-c1cn(Cc2cn3cc(CNCC45CC(F)(C4)C5)ccc3n2)nn1 [Example 43, 5-fluoro-3-{1-[(6-{[({3-fluorobicyclo[1.1.1]pentan-1-yl}methyl)amino]methyl}imidazo[1,2-a]pyridin-2-yl)methyl]-1H-1,2,3-triazol-4-yl}pyridine-2-carbonitrile] | 235 nM
COc1cncc(C(=O)NCc2cn3cc(CNCC4CCC4)ccc3n2)c1 [Example 46, N-[(6-{[(cyclobutylmethyl)amino]methyl}imidazo[1,2-a]pyridin-2-yl)methyl]-5-methoxypyridine-3-carboxamide] | 74 nM
COc1cnc(C(N)=O)c(-c2cn(Cc3cn4cc(CNCC56CC(F)(C5)C6)ccc4n3)nn2)c1 [Example 49, 3-{1-[(6-{[({3-fluorobicyclo[1.1.1]pentan-1-yl}methyl)amino]methyl}imidazo[1,2-a]pyridin-2-yl)methyl]-1H-1,2,3-triazol-4-yl}-5-methoxypyridine-2-carboxamide] | 85 nM

same assay, conditions: inhibition of RNA methyltransferase activity; 5 nM METTL3/14, 0.2 μM RNA substrate, 0.5 μM SAM; lower limit of the assay IC50=5 nM

SMILES | IC50
O=C(NCc1cn2cc(CNCC3CCCCC3)ccc2n1)c1cnc2ccccc2c1 [Example 8, N-[(6-{[(cyclohexylmethyl)amino]methyl}imidazo[1,2-a]pyridin-2-yl)methyl]quinoline-3-carboxamide] | 1190 nM
Cc1ccc2nc(CNC(=O)c3nccc4[nH]ncc34)cn2c1 [Reference Example 1, N-({6-methylimidazo[1,2-a]pyridin-2-yl}methyl)-1H-pyrazolo[4,3-c]pyridine-4-carboxamide] | 5340 nM

test system: Caov-3 cells; experiment: Caov3 CTG proliferation assay (CellTiter-Glo); assay type: cell-based; conditions: Homo sapiens, 120 hours treatment, 30 μM top concentration
Description: (§1) Cell treatment and cell growth assessment: 18 hours post-seeding in white 384-Viewplate (6007480, PerkinElmer) at 1500 cells/well, Caov3 cells were treated for 120 hours with compounds inhibiting the METTL3/14 activity (10 serial semi-log dilutions, 30 μM as top concentration). Upon treatment, Coav-3 cells were incubated for 10 min at RT with the CellTiter-Glo reagent (G7571, Promega). Measurement of the luminescence signal was performed on a microplate reader (Ensight, PerkinElmer).

SMILES | IC50
O=C(NCc1cn2cc(CNCC3CCC3)ccc2n1)c1cnc2[nH]ccc2n1 [Example 18, N-[(6-{[(cyclobutylmethyl)amino]methyl}imidazo[1,2-a]pyridin-2-yl)methyl]-5H-pyrrolo[2,3-b]pyrazine-2-carboxamide] | 2790 nM
Clc1cc(-c2cn(Cc3cn4cc(CNCC5CCC5)ccc4n3)nn2)c2cncn2c1 [Example 24, ({2-[(4-{6-chloroimidazo[1,5-a]pyridin-8-yl}-1H-1,2,3-triazol-1-yl)methyl]imidazo[1,2-a]pyridin-6-yl}methyl)(cyclobutylmethyl)amine] | 343 nM
c1cc2cc(-c3cn(Cc4cn5cc(CNCC6CCC6)ccc5n4)cn3)cnc2[nH]1 [Example 34, (cyclobutylmethyl)({2-[(4-{1H-pyrrolo[2,3-b]pyridin-5-yl}-1H-imidazol-1-yl)methyl]imidazo[1,2-a]pyridin-6-yl}methyl)amine] | 1280 nM
COc1cnc(C#N)c(-c2cn(Cc3cn4cc(CN5CCC(C)(C)CC5)ccc4n3)nn2)c1 [Example 39, 3-[1-({6-[(4,4-dimethylpiperidin-1-yl)methyl]imidazo[1,2-a]pyridin-2-yl}methyl)-1H-1,2,3-triazol-4-yl]-5-methoxypyridine-2-carbonitrile] | 5530 nM

test system: KASUMI-1 cells; experiment: Kasumi cell assay (CellTiter-Glo cell growth); assay type: cell-based; conditions: Homo sapiens, 120 hours treatment, 30 μM top concentration
Description: Cell culture: KASUMI-1 cells (ACC20, Leibniz-Institut DSMZ Deutsche Sammlung von Mikroorganismen und Zellkulturen GmbH) were grown in RPMI 1640 (31870-025, Gibco) supplemented with 20% fetal bovine serum (F1524, Gibco), 1 mM sodium pyruvate (11360-039, Gibco) and 2 mM Glutamax (35050-038, Gibco) in a 5% CO2 humidified incubator at 37° C.
as §1, with “KASUMI-1” for “18”, “were seeded” for “post-seeding”, “ultra-low attachment 384-well culture plate (MS-9384WZ, SBio)” for “white 384-Viewplate (6007480, PerkinElmer)”, “a final concentration of 250,000 cells/ml (35 μL/well) and” for “1500 cells/well, Caov3 cells were”, “Kasumi1” for “Coav-3”

SMILES | IC50
c1cc(-c2cn(Cc3cn4cc(CNCC5CCC5)ccc4n3)nn2)c2nncn2c1 [Example 27, (cyclobutylmethyl)({2-[(4-{[1,2,4]triazolo[4,3-a]pyridin-8-yl}-1H-1,2,3-triazol-1-yl)methyl]imidazo[1,2-a]pyridin-6-yl}methyl)amine] | 30000 nM
COc1cnc(C#N)c(-c2cn(Cc3cn4cc(CN5CCC(C)(C)CC5)ccc4n3)nn2)c1 [Example 39, 3-[1-({6-[(4,4-dimethylpiperidin-1-yl)methyl]imidazo[1,2-a]pyridin-2-yl}methyl)-1H-1,2,3-triazol-4-yl]-5-methoxypyridine-2-carbonitrile] | 6210 nM

Reference: patent publication US20230391770A1, “METTL3 INHIBITORY COMPOUNDS” (Storm Therapeutics Limited, priority 2020, published 2023)
